Measurements published in patent US10221173B2, “Chemical compounds” (AstraZeneca AB, priority 2017, dated 2019).
Values after ≈ are worked out from the molar mass of the structure shown.

Key:
hERG potassium channel = hERG potassium channel (Homo sapiens (Human), UniProt Q12809)
Description: The assay was conducted as follows with all reagents used at room temperature unless otherwise stated.
All compounds were acoustically dispensed in quadruplicate using a Labcyte Echo.
Calculation of results is performed using APC package within Genedata. For the routine normalization of well data with Neutral and Inhibitor control well groups as reference, GeneData Assay Analyzer uses the following equation to normalize the signal values to the desired signal range:
[formula] x is the measured raw signal value of a well is the median of the measured signal values for the Central Reference (Neutral) wells on a plate is the median of the measured signal values for the Scale Reference (Inhibitor) wells on a plate CR is the desired median normalized value for the Central Reference (Neutral) SR is the desired median normalized value for the Scale Reference (Inhibitor)

[1] = Thermodynamic solubility (shake-flask); type: physicochemical; settings: aqueous phosphate buffer, 25 °C, pH 7.4, aqueous buffer, thermodynamic from solid, phosphate buffer pH 7.4, 24 hours
[2] = Human plasma protein binding (equilibrium dialysis); type: in vitro ADME
[3] = target: Estrogen Receptor (ERα) in MCF-7 cells (Homo sapiens (Human), UniProt P03372); assay: MCF-7 ER down-regulation assay (immuno-fluorescence); type: cell-based; settings: for % downregulation (in brackets): maximum downregulation
Sequence of Estrogen Receptor (ERα) in MCF-7 cells (P03372 whole entry): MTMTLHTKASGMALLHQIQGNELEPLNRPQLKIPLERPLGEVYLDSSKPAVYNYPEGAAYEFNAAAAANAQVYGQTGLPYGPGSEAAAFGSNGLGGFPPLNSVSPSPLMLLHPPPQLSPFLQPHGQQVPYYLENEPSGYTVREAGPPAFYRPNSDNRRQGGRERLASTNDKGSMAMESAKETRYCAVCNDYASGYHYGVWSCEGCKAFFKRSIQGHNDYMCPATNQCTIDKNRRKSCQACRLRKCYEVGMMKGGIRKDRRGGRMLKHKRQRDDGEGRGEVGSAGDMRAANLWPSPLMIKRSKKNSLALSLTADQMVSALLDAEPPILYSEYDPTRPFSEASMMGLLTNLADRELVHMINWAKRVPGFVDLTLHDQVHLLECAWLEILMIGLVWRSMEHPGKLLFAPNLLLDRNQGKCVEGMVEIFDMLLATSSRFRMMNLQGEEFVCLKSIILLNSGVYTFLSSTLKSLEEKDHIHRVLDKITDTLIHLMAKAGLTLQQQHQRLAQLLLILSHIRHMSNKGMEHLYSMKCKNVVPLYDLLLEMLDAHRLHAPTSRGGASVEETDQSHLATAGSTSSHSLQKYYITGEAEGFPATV
Description: The ability of compounds to down-regulate Estrogen Receptor (ER) numbers was assessed in a cell based immuno-fluorescence assay using the MCF-7 human ductal carcinoma breast cell line. MCF-7 cells were revived directly from a cryovial (approx 5×10^6 cells) in Assay Medium (phenol red free Dulbecco's Modified Eagle's medium (DMEM); Sigma D5921) containing 2 mM L-Glutamine and 5% (v/v) Charcoal/Dextran treated foetal calf serum. Cells were syringed once using a sterile 18G×1.5 inch (1.2×40 mm) broad gauge needle and cell density was measured using a Coulter Counter (Beckman). […] Following cell seeding, plates were incubated overnight at 37° C., 5% CO2 (Liconic carousel incubator). Test data was generated using the LabCyte Echomodel 555 compound reformatter which is part of an automated workcell (Integrated Echo 2 workcell). Compound stock solutions (10 mM) of the test compounds were used to generate a 384 well compound dosing plate (Labcyte P-05525-CV1). […] 40 μL of DMSO added to wells in row P on the source plate allowed for DMSO normalisation across the dose range. To dose the control wells 40 μL of DMSO was added to row O1 and 40 μL of 100 μM fulvestrant in DMSO was added to row O3 on the compound source plate.
The Echo uses acoustic technology to perform direct microplate-to-microplate transfers of DMSO compound solutions to assay plates. The system can be programmed to transfer volumes as low as 2.5 nL in multiple increments between microplates and in so doing generates a serial dilution of compound in the assay plate which is then back-filled to normalise the DMSO concentration across the dilution range. […] The fixing method described above was carried out on the Integrated Echo 2 workcell. Immunostaining was performed using an automated AutoElisa workcell. The PBS/Proclin was aspirated from all wells and the cells permeabilised with 40 μL PBS containing 0.5% Tween™ 20 (v/v) for 1 hour at room temperature. The plates were washed three times in 250 μL of PBS/0.05% (v/v) Tween 20 with Proclin (PBST with a Biocide preservative) and then 20 μL of ERα (SP1) Rabbit monoclonal antibody (Thermofisher) 1:1000 in PBS/Tween™/3% (w/v) Bovine Serum Albumin was added. The plates were incubated overnight at 4° C. (Liconic carousel incubator) and then washed three times in 250 μL of PBS/0.05% (v/v) Tween™ 20 with Proclin (PBST). The plates were then incubated with 20 μL/well of a goat anti-rabbit IgG AlexaFluor 594 or goat anti-rabbit AlexaFluor 488 antibody (Molecular Probes) with Hoechst at 1:5000 in PBS/Tween™/3% (w/v) Bovine Serum Albumin for 1 hour at room temperature. The plates were then washed three times in 250 μL of PBS/0.05% (v/v) Tween™ 20 with Proclin (PBST with a Biocide preservative). 20 μL of PBS was added to each well and the plates covered with a black plate seal and stored at 4° C. before being read. […] The mean total intensity was normalized for cell number giving the total intensity per cell. The data was exported into a suitable software package (such as Origin) to perform curve fitting analysis.

[4] = Log D (shake flask, 1-octanol/aqueous buffer); type: physicochemical; settings: 1-octanol/aqueous buffer, pH 7.4, pH 7.4
[5] = target: recombinant human Estrogen Receptor alpha ligand binding domain (ER alpha-LBD (GST)) (Homo sapiens (Human), UniProt P03372); assay: ERα binding assay (LanthaScreen TR-FRET competition)
Sequence of recombinant human Estrogen Receptor alpha ligand binding domain (ER alpha-LBD (GST)) (P03372 307-554): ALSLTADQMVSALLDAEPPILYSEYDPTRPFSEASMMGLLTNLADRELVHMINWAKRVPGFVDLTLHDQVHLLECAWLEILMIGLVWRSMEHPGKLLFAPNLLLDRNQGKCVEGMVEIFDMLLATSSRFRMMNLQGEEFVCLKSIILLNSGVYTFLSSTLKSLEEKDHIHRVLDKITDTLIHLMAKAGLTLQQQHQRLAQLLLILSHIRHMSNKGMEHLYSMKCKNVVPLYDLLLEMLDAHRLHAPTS

Sequence of hERG potassium channel (Q12809 whole entry): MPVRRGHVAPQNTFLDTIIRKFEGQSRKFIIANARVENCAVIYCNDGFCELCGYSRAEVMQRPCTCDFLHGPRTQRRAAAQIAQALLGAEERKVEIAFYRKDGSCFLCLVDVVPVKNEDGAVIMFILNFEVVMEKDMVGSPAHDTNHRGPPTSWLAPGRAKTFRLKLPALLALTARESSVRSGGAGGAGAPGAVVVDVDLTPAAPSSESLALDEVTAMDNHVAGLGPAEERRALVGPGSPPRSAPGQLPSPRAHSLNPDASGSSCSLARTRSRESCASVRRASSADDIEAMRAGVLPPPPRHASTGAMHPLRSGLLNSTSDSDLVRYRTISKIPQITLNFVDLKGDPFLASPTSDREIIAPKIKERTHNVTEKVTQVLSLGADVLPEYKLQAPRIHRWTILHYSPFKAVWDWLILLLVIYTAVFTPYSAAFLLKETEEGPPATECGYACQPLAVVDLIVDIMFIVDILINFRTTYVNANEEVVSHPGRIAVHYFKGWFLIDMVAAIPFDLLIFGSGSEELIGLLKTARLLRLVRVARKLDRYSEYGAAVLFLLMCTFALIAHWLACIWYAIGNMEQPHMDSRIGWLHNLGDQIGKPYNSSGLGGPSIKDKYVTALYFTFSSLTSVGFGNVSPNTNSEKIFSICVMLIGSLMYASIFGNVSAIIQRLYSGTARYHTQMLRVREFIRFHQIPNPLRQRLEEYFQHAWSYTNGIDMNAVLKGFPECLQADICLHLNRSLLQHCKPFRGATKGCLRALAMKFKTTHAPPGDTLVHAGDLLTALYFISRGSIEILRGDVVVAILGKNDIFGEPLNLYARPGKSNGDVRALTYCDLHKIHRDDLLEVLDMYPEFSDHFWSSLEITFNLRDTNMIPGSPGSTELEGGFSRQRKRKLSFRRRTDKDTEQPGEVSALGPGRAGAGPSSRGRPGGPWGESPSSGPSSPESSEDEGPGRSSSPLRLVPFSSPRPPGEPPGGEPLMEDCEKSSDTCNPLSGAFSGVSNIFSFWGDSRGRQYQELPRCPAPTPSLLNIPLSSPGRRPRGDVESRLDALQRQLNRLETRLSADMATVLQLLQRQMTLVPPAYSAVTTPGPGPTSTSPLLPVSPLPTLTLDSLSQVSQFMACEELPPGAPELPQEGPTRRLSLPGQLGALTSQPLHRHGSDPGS

| SMILES | IC50 (hERG potassium channel) [µM] | solubility at 24 h [1] [µM] | Human plasma protein binding (% free) [2] [% free] | IC50 [3] [nM] | logD [4] | IC50 [5] [nM] | % downregulation (in brackets) [3] [%] |
| --- | --- | --- | --- | --- | --- | --- | --- |
| C[C@@H]1Cc2c([nH]c3ccccc23)[C@@](C)(c2cccc(OCCNCCCF)c2)N1CC(F)(F)F [Example 75, N-(2-(3-((1R,3R)-1,3-dimethyl-2-(2,2,2-trifluoroethyl)-2,3,4,9-tetrahydro-1H-pyrido[3,4-b]indol-1-yl)phenoxy)ethyl)-3-fluoropropan-1-amine] | 7.7 | 0.9 (≈ 0.43 µg/mL) | 0.08 | 58 | 4.5 | 52 | – |
| C[C@@H]1Cc2c([nH]c3ccccc23)[C@@H](c2c(F)ccc(OCCNCCCF)c2F)N1CC1(S(C)(=O)=O)CC1 [Example 77, N-(2-(2,4-difluoro-3-((1R,3R)-3-methyl-2-((1-(methylsulfonyl)cyclopropyl)methyl)-2,3,4,9-tetrahydro-1H-pyrido[3,4-b]indol-1-yl)phenoxy)ethyl)-3-fluoropropan-1-amine] | 5.4 | 410 (≈ 225 µg/mL) | 5.5 | 6.2 | 2.4 | 7.3 | – |
| Cc1ccc(OCCNCCCF)c(C)c1[C@@H]1c2[nH]c3ccccc3c2C[C@@H](C)N1CC(F)(F)F [Example 79, N-(2-(2,4-dimethyl-3-((1R,3R)-3-methyl-2-(2,2,2-trifluoroethyl)-2,3,4,9-tetrahydro-1H-pyrido[3,4-b]indol-1-yl)phenoxy)ethyl)-3-fluoropropan-1-amine] | 10 | 3.9 (≈ 1.92 µg/mL) | <0.4 | 0.16 | 4.8 | 1.4 | – |
| COc1ccc(OCCNCCCF)c(F)c1[C@@H]1c2[nH]c3ccccc3c2C[C@@H](C)N1CC(F)(F)CO [Example 81, 2,2-difluoro-3-((1R,3R)-1-(2-fluoro-3-(2-((3-fluoropropyl)amino)ethoxy)-6-methoxyphenyl)-3-methyl-1,3,4,9-tetrahydro-2H-pyrido[3,4-b]indol-2-yl)propan-1-ol] | 3.9 | 736 (≈ 385 µg/mL) | 2.9 | 0.17 | 2.6 | > 110 | – |
| COc1ccc(OCCNCCCF)c(F)c1[C@@H]1c2[nH]c3ccccc3c2C[C@@H](C)N1CC1(F)CC1 [Example 83, 3-fluoro-N-(2-(2-fluoro-3-((1R,3R)-2-((1-fluorocyclopropyl)methyl)-3-methyl-2,3,4,9-tetrahydro-1H-pyrido[3,4-b]indol-1-yl)-4-methoxyphenoxy)ethyl)propan-1-amine] | 4 | 595 (≈ 298 µg/mL) | 2.5 | 0.28 | 2.9 | 1.7 | 90 |
| COc1ccc(OCCNCCCF)c(F)c1[C@@H]1c2[nH]c3ccccc3c2C[C@@H](C)N1CC1(F)COC1 [Example 84, 3-fluoro-N-(2-(2-fluoro-3-((1R,3R)-2-((3-fluorooxetan-3-yl)methyl)-3-methyl-2,3,4,9-tetrahydro-1H-pyrido[3,4-b]indol-1-yl)-4-methoxyphenoxy)ethyl)propan-1-amine] | 2.8 | 640 (≈ 331 µg/mL) | 6 | 0.16 | 2.4 | 0.94 | 83 |
| C[C@@H]1Cc2c([nH]c3ccccc23)[C@@H](c2c(F)ccc(OCCNCCCF)c2Cl)N1CC(F)(F)CO [Example 85, 3-((1R,3R)-1-(2-chloro-6-fluoro-3-(2-((3-fluoropropyl)amino)ethoxy)phenyl)-3-methyl-1,3,4,9-tetrahydro-2H-pyrido[3,4-b]indol-2-yl)-2,2-difluoropropan-1-ol] | 4.2 | 224 (≈ 118 µg/mL) | 1.0 | 0.089 | 3.1 | 1.3 | – |
| COc1ccc(OCCNCCCF)c(F)c1[C@@H]1c2[nH]c3ccc(F)cc3c2C[C@@H](C)N1CC(F)(F)CO [Example 86, 2,2-difluoro-3-((1R,3R)-6-fluoro-1-(2-fluoro-3-(2-((3-fluoropropyl)amino)ethoxy)-6-methoxyphenyl)-3-methyl-1,3,4,9-tetrahydro-2H-pyrido[3,4-b]indol-2-yl)propan-1-ol] | 3.9 | 385 (≈ 209 µg/mL) | 2.6 | 0.17 | 2.9 | 0.86 | – |
| C[C@@H]1Cc2c([nH]c3ccc(F)cc23)[C@@H](c2c(F)ccc(NCCNCCCF)c2F)N1CC(F)(F)CO [Example 89, 3-((1R,3R)-1-(2,6-difluoro-3-((2-((3-fluoropropyl)amino)ethyl)amino)phenyl)-6-fluoro-3-methyl-1,3,4,9-tetrahydro-2H-pyrido[3,4-b]indol-2-yl)-2,2-difluoropropan-1-ol] | 6.1 | 670 (≈ 354 µg/mL) | <3.4 | 0.14 | 2.7 | 0.91 | – |
| COc1cc(F)c(NCCNCCCF)cc1[C@@H]1c2[nH]c3ccccc3c2C[C@@H](C)N1CC(F)(F)F [Example 91, N1-(2-fluoro-4-methoxy-5-((1R,3R)-3-methyl-2-(2,2,2-trifluoroethyl)-2,3,4,9-tetrahydro-1H-pyrido[3,4-b]indol-1-yl)phenyl)-N2-(3-fluoropropyl)ethane-1,2-diamine] | 2.6 | 280 (≈ 143 µg/mL) | 0.93 | 15 | 2.9 | 9.4 | – |
| C[C@@H]1Cc2c([nH]c3ccccc23)[C@@H](c2nccc(NCCNCCCF)c2F)N1CC(F)(F)F [Example 94, N1-(3-fluoro-2-((1S,3R)-3-methyl-2-(2,2,2-trifluoroethyl)-2,3,4,9-tetrahydro-1H-pyrido[3,4-b]indol-1-yl)pyridin-4-yl)-N2-(3-fluoropropyl)ethane-1,2-diamine] | 9.9 | 698 (≈ 336 µg/mL) | 7 | 9.2 | 2.4 | 3.6 | – |
| Cc1c(NCCNCCCF)ccnc1[C@@H]1c2[nH]c3ccccc3c2C[C@@H](C)N1CC(F)(F)F [Example 95, N1-(3-fluoropropyl)-N2-(3-methyl-2-((1S,3R)-3-methyl-2-(2,2,2-trifluoroethyl)-2,3,4,9-tetrahydro-1H-pyrido[3,4-b]indol-1-yl)pyridin-4-yl)ethane-1,2-diamine] | 7.2 | 869 (≈ 415 µg/mL) | 4.6 | 3.3 | 2.5 | 5.6 | – |
| C[C@@H]1Cc2c([nH]c3ccccc23)[C@@H](c2ccnc(OCCNCCCF)c2)N1CC(F)(F)F [Example 102, 3-fluoro-N-(2-((4-((1R,3R)-3-methyl-2-(2,2,2-trifluoroethyl)-2,3,4,9-tetrahydro-1H-pyrido[3,4-b]indol-1-yl)pyridin-2-yl)oxy)ethyl)propan-1-amine] | 7.2 | 251 (≈ 117 µg/mL) | 1.4 | 2.9 | 3.8 | 2 | – |
